As a reminder, the IC50 is the point on the concentration scale where inhibition reaches its midpoint.

These results are taken from ChEMBL document CHEMBL5726067, “[8-(phenylsulfonyl)-3,8-diazabicyclo[3.2.1]oct-3-yl](1H-1,2,3-triazol-4-yl)methanones” (2019).

This assay deals with T1, Aldo-keto reductase family 1 member C3 (Homo sapiens, UniProt P42330).
T1 sequence (P42330 whole entry): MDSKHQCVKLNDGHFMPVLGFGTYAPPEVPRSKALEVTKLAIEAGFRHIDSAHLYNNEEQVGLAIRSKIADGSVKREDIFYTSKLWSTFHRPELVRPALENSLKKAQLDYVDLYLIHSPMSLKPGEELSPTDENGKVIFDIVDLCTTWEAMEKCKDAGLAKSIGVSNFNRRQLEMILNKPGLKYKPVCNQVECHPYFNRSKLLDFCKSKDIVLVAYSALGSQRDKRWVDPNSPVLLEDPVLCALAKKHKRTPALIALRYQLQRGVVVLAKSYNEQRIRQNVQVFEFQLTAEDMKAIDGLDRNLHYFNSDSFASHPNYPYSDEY
Kind of assay: AKR1C3-Inhibitory Activity Assay: The enzyme used was recombinant human AKR1C3 (Aldo-keto reductase family 1 member C3; GenBank Accession No. NM_003739). This was expressed in E. coli as GST (glutathione S transferase) fusion protein and purified by glutathione Sepharose affinity chromatography. The GST was removed by digestion with thrombin and subsequent size exclusion chromatography (Dufort, I., Rheault, P., Huang, X F., Soucy, P., and Luu-The, V., Endocrinology 140, 568-574 (1999)).For the assay, 50 nl of a 100-fold concentrated solution of the test substance in DMSO were pipetted into a black low-volume 384-well microtiter plate (Greiner Bio-One, Frickenhausen, Germany), 2.5 μl of a solution of AKR1C3 in assay buffer [50 mM potassium phosphate buffer pH 7, 1 mM DTT, 0.0022% (w/v) Pluronic F-127, 0.01% BSA (w/v) and protease inhibitor cocktail (Complete, EDTA-free Protease Inhibitor Cocktail from Roche)] were added and the mixture was incubated for 15 min to allow pre-binding of the substances to the enzyme prior to the enzyme reaction. The enzyme reaction was then started by addition of 2.5 μl of a solution of NADPH (20 μM→final concentration in 5 μl of assay volume is 10 μM) and Coumberone (0.6 μM→final concentration in 5 μl of assay volume is 0.3 μM) in assay buffer, and the resulting mixture was incubated at 22° C. for the reaction time of typically 90 min. […]. In general terms: Size exclusion chromatography separates by hydrodynamic size, large species first.

With `O=C(c1cnn[nH]1)N1CC2CCC(C1)N2S(=O)(=O)c1ccccc1Br`, the IC50 is 0.7 nM.
The same measure for `O=C(c1cnn[nH]1)N1CC2CCC(C1)N2S(=O)(=O)c1ccccc1Cl`: 1.4 nM.
